From patent publication US4859611A (priority 1986, dated 1989)

What was measured:
[1] = system: IgM antibody affinity matrix; assay type: binding, mouse
many animal species = details: in vivo; cited from earlier work

SMILES: COc1cc2c(c3oc(=O)c4c(c13)CCC4=O)[C@@H]1C=CO[C@@H]1O2 [AFB1, aflatoxin B1]
- capacity of affinity matrix to bind AFB1 [1]: 1.0 to 1.3 µg
- toxic, mutagenic and carcinogenic effect (many animal species): toxic, mutagenic and carcinogenic
